Where a name gives a salt, the structure may show the parent alone.
Legend:
[1] = system: tetracycline sensitive and resistant Gram-positive and Gram-negative bacteria; assay: In vitro antibacterial activity, summary statements of the testing results; format: cell-based
Description: (§1) Method for In Vitro Antibacterial Evaluation (Table I)
(§2) The minimum inhibitory concentration (MIC), the lowest concentration of the antibiotic which inhibits growth of the test organism, is determined by the agar dilution method using Muller-Hinton II agar (Baltimore Biological Laboratories). An inoculum density of 1-5×10^5 CFU/ml and an antibiotic concentration (32-≤0.015 μg/ml) is used. The plates are incubated for 18 hours at 35° C. in a forced air incubator. The test organisms comprise strains sensitive to tetracycline and genetically defined strains that are resistant to tetracycline, due to inability to bind bacterial ribosomes (tetM).

[2] = system: E. coli UBMS 88-1 (tetB); assay: microbe, parasite or virus in culture; format: cell-based; conditions: Escherichia coli, 18 h
Description: as §1, §2

[3] = system: S. aureus UBMS 88-7 (tetK); assay: microbe, parasite or virus in culture; format: cell-based; conditions: Staphylococcus aureus, 18 h
Description: as §1, §2

[4] = system: S. aureus UBMS 90-1 (tetM); assay: microbe, parasite or virus in culture; format: cell-based; conditions: Staphylococcus aureus, 18 h
Description: as §1, §2

[5] = system: S. aureus UBMS 90-2 (tetM); assay: microbe, parasite or virus in culture; format: cell-based; conditions: Staphylococcus aureus, 18 h
Description: as §1, §2

[6] = system: S. aureus UBMS 88-5 (tetM); assay: microbe, parasite or virus in culture; format: cell-based; conditions: Staphylococcus aureus, 18 h
Description: as §1, §2

[7] = system: E. coli UBMS 89-2 (sensitive); assay: In vitro antibacterial evaluation, MIC by agar dilution; format: cell-based; conditions: Escherichia coli, Muller-Hinton II agar, 18 hours at 35° C.
Description: as §1, §2

[8] = system: E. coli UBMS 88-2 (sensitive); assay: as above; format: cell-based; conditions: Escherichia coli, 18 h
Description: as §1, §2

[9] = system: Enteroc. spp. 12201; assay: as above; format: cell-based; conditions: agar dilution, Muller-Hinton II agar, 18 hours at 35° C.; Enteroc. spp. 12201; read-out: MIC
Description: as §1, §2

[10] = system: S. faecal. ATCC 29212; assay: as above; format: cell-based; conditions: agar dilution, Muller-Hinton II agar, 18 hours at 35° C.; S. faecal. ATCC 29212; read-out: MIC
Description: as §1, §2

[11] = system: S. aureus UBMS 90-3 (sensitive); assay: as above; format: cell-based; conditions: Staphylococcus aureus; agar dilution, Muller-Hinton II agar, 18 hours at 35° C.; S. aureus UBMS 90-3 (sensitive); read-out: MIC
Description: as §1, §2

[12] = system: S. aureus ATCC 29213 (sensitive); assay: as above; format: cell-based; conditions: Staphylococcus aureus, ATCC29213; agar dilution, Muller-Hinton II agar, 18 hours at 35° C.; S. aureus ATCC 29213 (sensitive); read-out: MIC
Description: as §1, §2

[13] = system: S. aureus IVES 1983 (MP) (meth. resistant); assay: as above; format: cell-based; conditions: Staphylococcus aureus; agar dilution, Muller-Hinton II agar, 18 hours at 35° C.; S. aureus IVES 1983 (MP) (meth. resistant); read-out: MIC
Description: as §1, §2

[14] = system: S. aureus UBMS 88-4 (sensitive); assay: as above; format: cell-based; conditions: Staphylococcus aureus; agar dilution, Muller-Hinton II agar, 18 hours at 35° C.; S. aureus UBMS 88-4 (sensitive); read-out: MIC
Description: as §1, §2

[15] = system: E. coli ATCC 25922; assay: as above; format: cell-based; conditions: Escherichia coli, ATCC25922; agar dilution, Muller-Hinton II agar, 18 hours at 35° C.; E. coli ATCC 25922; read-out: MIC
Description: as §1, §2

[16] = system: S. aureus SMITH (MP) (sensitive); assay: as above; format: cell-based; conditions: Staphylococcus aureus; agar dilution, Muller-Hinton II agar, 18 hours at 35° C.; S. aureus SMITH (MP) (sensitive); read-out: MIC
Description: as §1, §2

[17] = system: S30 extract from E. coli strain MRE 600 (tetracycline sensitive); assay: E. coli in vitro cell free protein translation system, Wild Type S30; format: biochemical; conditions: for % Inhibition Wild Type S30: 35S-methionine incorporation, 30 minutes at 37° C.
From the text: (§3) E. coli in Vitro protein Translation System (Table II)
(§4) An in vitro, cell free, protein translation system using extracts from E. coli strain MRE 600 (tetracycline sensitive) and a derivative of MRE 600 containing the tetM determinant has been developed based on literature methods J. M. Pratt, Coupled Transcription-translation in Prokaryotic Cell-free Systems, Transcription and Translation, a Practical Approach, (B. D. Hames and S. J. Higgins, eds) p. 179-209, IRL Press, Oxford-Washington, 1984!.
(§5) Using the system described above, the tetracycline compounds of the present invention are tested for their ability to inhibit protein synthesis in vitro. Briefly, each 10 μl reaction contains S30 extract (a whole extract) made from either tetracycline sensitive cells or an isogenic tetracycline resistant (tetM) strain, low molecular weight components necessary for transcription and translation (i.e., ATP and GTP), a mix of 19 amino acids (no methionine), ^35 S labeled methionine, DNA template (either pBR322 or pUC119), and either DMSO (control) or the novel tetracycline compound to be tested ("novel TC") dissolved in DMSO.
(§6) The reactions are incubated for 30 minutes at 37° C. Timing is initiated with the addition of the S30 extract, the last component to be added. After 30 minutes, 2.5 μl of the reaction is removed and mixed with 0.5 ml of 1N NaOH to destroy RNA and tRNA. Two to three ml of 25% trichloroacetic acid is added and the mixture incubated at room temperature for 15 minutes. The trichloroacetic acid precipitated material is collected on Whatman GF/C filters and washed with a solution of 10% trichloroacetic acid. The filters are dried and the retained radioactivity, representing incorporation of ^35 S-methionine into polypeptides, is counted using standard liquid scintillation methods.
(§7) The percent inhibition (P.I.) of protein synthesis is determined to be: [formula]

[18] = system: S30 extract from derivative of E. coli MRE 600 containing the tetM determinant; assay: E. coli in vitro cell free protein translation system, TetM S30; format: biochemical; conditions: cell-free extracts from strain MRE600 (tetM)
From the text: as §3, §4, §5, §6, §7

SMILES: CN(C)[C@@H]1C(O)=C(C(N)=O)C(=O)[C@@]2(O)C(O)=C3C(=O)c4c(cc(Cl)c(NC=O)c4O)CC3CC12 (stereo partly drawn) [A, 8-Chloro-4-(dimethylamino)-9-(formylamino)-1,4,4a,5,5a,6,11,12a-octahydro-3,10,12,12a-tetrahydroxy-1,11-dioxo-2-naphthacenecarboxamide hydrochloride or sulfate]
- in vitro activity, in words ([1]; tetracycline resistant strains containing tetM (S. aureus UBMS 88-5, 90-1 and 90-2)): good in vitro activity
- in vitro activity compared with minocycline, in words ([1]; tetracycline susceptible strains): equally as effective as minocycline
- MIC [2]: 32 µg/mL
- MIC [3]: 16 µg/mL
- MIC [4]: 0.25 µg/mL
- MIC [5]: 0.03 µg/mL
- MIC [6]: 0.12 µg/mL
- MIC [7]: 0.25 µg/mL
- MIC [8]: 0.12 µg/mL
- MIC [9]: 0.5 µg/mL
- MIC [10]: < 0.015 µg/mL
- MIC [11]: < 0.015 µg/mL
- MIC [12]: < 0.015 µg/mL
- MIC [13]: 32 µg/mL
- MIC [14]: < 0.015 µg/mL
- MIC [15]: 0.12 µg/mL
- MIC [16]: < 0.015 µg/mL
- % Inhibition Wild Type S30 ([17]; Conc. 0.3 mg/ml): 98%
- % Inhibition Wild Type S30 ([17]; Conc. 1.0): 93%
- inhibition of protein synthesis, in words ([17]; cell-free extracts from tetracycline susceptible strain MRE600): effectively inhibited
- inhibition of protein synthesis, in words [18]: effectively inhibited

Reference: patent publication US5512553A, “7-(substituted)-8-(substituted)-9-(substituted amino)-6-demethyl-6-deoxytetracyclines” (American Cyanamid Company, priority 1995, dated 1996)
